Assay: Anti-oxidative potential (AP) in vitro, test radical DPPH, ESR spectroscopy
Format: biochemical
Conditions: 1% ferulic acid
Procedure: The anti-oxidative potential (AP) of all described formulations was determined in vitro. In this method the formulations were incubated with a test radical (DPPH) and afterwards the reduction of these radicals over the time was measured by ESR (electron spin resonance spectroscopy). AP=amount of free radicals/mg of tested substance*minute.

SMILES: COc1cc(/C=C/C(=O)O)ccc1O [1% ferulic acid (EtOH/water), ferulic acid]
- anti-oxidative potential (AP): AP = 723 amount of free radicals/mg of tested substance*minute

— US9211238B2, “Carrier system for the transport of active substances into the skin” (priority 2010, dated 2015)
